Measurements as given in patent publication US9802903B2, “Process for preparing antiviral compound” (AbbVie Inc., priority 2010, dated 2017).

Assay: Ames test (mutagenic potential)
Format: cell-based
Details: genotoxic testing of process compounds
Excerpt: As discussed above, compound I (including salts thereof) is useful as a drug for treating HCV in humans. Thus, it is important that it be so prepared that it is safe for administration to humans. As one skilled in the art would understand, one aspect of drug safety is the minimization of the amount of genotoxic impurities that are associated with the production of a given drug, and, can therefore also be present in the drug product. A couple of well established tests are used to measure the genotoxicity of chemical compounds. One such test is the computer-based Derek analysis, and the other—the Ames test, which is a biological assay that assesses the mutagenic potential of chemical compounds.

| SMILES | Ames test result |
| --- | --- |
| CS(=O)(=O)Nc1ccc(I)cc1 [Compound 2a, N-(4-iodophenyl)methanesulfonamide] | negative |
| Nc1ccc(I)cc1 [Compound 1a, 4-iodoaniline] | negative |
